Reference: patent publication US8575197B2, “Pyrolinone derivative and pharmaceutical composition comprising the same” (Shionogi & Co., Ltd., priority 2008, dated 2013)
pIC50: −log10 of the molar value.

molecular target: human P2X3 receptor (Homo sapiens (Human), UniProt P56373); assay: P2X3 receptor inhibition, ATP-evoked Fluo-3 calcium fluorescence (FDSS 3000); format: cell-based; conditions: C6BU-1 cell transfected with human P2X3 receptor gene; ATP-evoked Fluo-3 fluorescence
Summary of the method: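 C6BU-1 cells stably transfected with human P2X3, loaded with 4 μM Fluo-3-AM for 1 h at 37 °C in HEPES buffer pH 7.5 with probenecid. Compound added 5 min before 40 nM ATP solution; fluorescence followed 3 min. IC50 from ratio of peak post-ATP to baseline fluorescence.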

human P2X3 receptor, sequence (P56373 whole entry): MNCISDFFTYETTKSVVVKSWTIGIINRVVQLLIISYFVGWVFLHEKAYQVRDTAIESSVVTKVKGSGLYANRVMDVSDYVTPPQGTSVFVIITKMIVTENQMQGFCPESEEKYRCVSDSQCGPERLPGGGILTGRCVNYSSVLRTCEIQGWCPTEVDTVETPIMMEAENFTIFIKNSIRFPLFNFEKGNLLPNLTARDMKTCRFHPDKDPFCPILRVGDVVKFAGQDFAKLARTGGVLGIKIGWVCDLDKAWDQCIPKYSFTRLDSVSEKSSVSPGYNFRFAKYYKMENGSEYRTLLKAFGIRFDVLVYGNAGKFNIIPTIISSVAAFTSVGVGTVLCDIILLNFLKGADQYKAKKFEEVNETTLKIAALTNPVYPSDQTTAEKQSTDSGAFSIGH

Structure (SMILES) | pIC50
COc1ccccc1C1c2c(-c3ccco3)n[nH]c2C(=O)N1c1ccc(-c2ccsc2)cc1 (centres unmarked) [II-178] | 6.83
COc1ccccc1C1c2c(C(=O)N(C)C)n[nH]c2C(=O)N1c1ccc(-c2ccsc2)cc1 (centres unmarked) [II-180] | 6.58
CNC(=O)c1n[nH]c2c1C(c1ccccc1OC)N(c1ccc(-c3ccsc3)cc1)C2=O (centres unmarked) [II-181] | 6.52
COc1ccccc1C1c2c(CO)n[nH]c2C(=O)N1c1ccc(-c2ccsc2)cc1 (centres unmarked) [II-182] | 7.22
CCOC(=O)C1c2c(C(C)C)n[nH]c2C(=O)N1c1ccc(-c2ccsc2)cc1 (centres unmarked) [II-183] | 6.34
CC(C)c1n[nH]c2c1C(c1ccccc1OCC(C)(C)O)N(c1ccc(-c3ccsc3)cc1)C2=O (centres unmarked) [II-184] | 7.92
CC(C)c1n[nH]c2c1C(c1ccccc1OCC(=N)NO)N(c1ccc(-c3ccsc3)cc1)C2=O (centres unmarked) [II-185] | 7.96
COc1ccccc1C1c2c(C(C)=O)n[nH]c2C(=O)N1c1ccc(-c2ccsc2)cc1 (centres unmarked) [II-188] | 6.81
COc1ccccc1C1c2c(C(C)C)n[nH]c2CN1C(=O)Nc1ccc(-c2ccsc2)cc1 (centres unmarked) [II-189] | 6.05
COc1ncccc1C1c2c(C(C)(C)C)n[nH]c2C(=O)N1c1ccc(-c2cc(C)no2)cc1 (centres unmarked) [II-191] | 6.49
COc1ncccc1C1c2c(C(C)(C)C)n[nH]c2C(=O)N1c1ccc(C2=NCCS2)cc1 (centres unmarked) [II-192] | 6.65
COc1ncccc1C1c2c(C(C)(C)C)n[nH]c2C(=O)N1c1ccc(-c2nccs2)cc1 (centres unmarked) [II-193] | 6.71
COc1ncccc1C1c2c(C(C)(C)C)n[nH]c2C(=O)N1c1ccc(-c2noc(C)n2)cc1 (centres unmarked) [II-194] | 6.41
COc1ncccc1C1c2c(C(C)(C)C)n[nH]c2C(=O)N1c1ccc(-c2nc(C)no2)cc1 (centres unmarked) [II-195] | 6.03
COc1ccccc1C1c2c(C(C)(C)C)n[nH]c2C(=O)N1c1ccc(C)cc1 (centres unmarked) [II-196] | 6.11
COc1ccccc1C1c2c(C(C)(C)C)n[nH]c2C(=O)N1c1ccc(C(C)C)cc1 (centres unmarked) [II-197] | 6.97
COc1ccc(C2(c3n[nH]c4c3C(c3ccccc3OC)N(c3ccc(-c5ccon5)cc3)C4=O)CC2)cc1 (centres unmarked) [II-198] | 6.91
COc1ccccc1C1c2c(C(C)(C)c3ccccc3)n[nH]c2C(=O)N1c1ccc(-c2ccon2)cc1 (centres unmarked) [II-199] | 6.95
COc1ccc(-c2n[nH]c3c2C(C2CCCCC2)N(Cc2cc(C)on2)C3=O)cc1 (centres unmarked) [II-200] | 6.35
COc1ccccc1C1c2c(C(C)(C)C)n[nH]c2C(=O)N1c1ccc(SC)cc1 (centres unmarked) [II-201] | 7.48
COc1ccccc1C1c2c(C(C)(C)C)n[nH]c2C(=O)N1c1ccc(N(C)C)cc1 (centres unmarked) [II-202] | 7.12
COc1ccccc1C1c2c(C(C)(C)C)n[nH]c2C(=O)N1c1ccc(-c2ccco2)cc1 (centres unmarked) [II-203] | 7.55
COc1ccccc1C1c2c(C(C)(C)C)n[nH]c2C(=O)N1c1ccc(-c2ccsc2)cc1 (centres unmarked) [II-204] | 7.77
COc1ccccc1C1c2c(C(C)(C)C)n[nH]c2C(=O)N1c1ccc(-c2cccn2C)cc1 (centres unmarked) [II-205] | 6.09
COc1ccccc1C1c2c(C(C)(C)C)n[nH]c2C(=O)N1c1ccc(-c2ccccc2)cc1 (centres unmarked) [II-208] | 6.95
COc1ccccc1C1c2c(C(C)(C)C)n[nH]c2C(=O)N1c1ccc(-c2ncco2)cc1 (centres unmarked) [II-209] | 7.06
COc1ccccc1C1c2c(C(C)(C)C)nn(C(=O)OC(C)(C)C)c2C(=O)N1c1ccc(Br)cc1 (centres unmarked) [II-211] | 6.87
COc1ccccc1C1c2c(C(C)(C)C)n[nH]c2C(=O)N1c1ccc(-c2cccs2)cc1 (centres unmarked) [II-213] | 7.96
COc1ccccc1C1c2c(C(C)(C)CO)n[nH]c2C(=O)N1c1ccc(-c2ccco2)cc1 (centres unmarked) [II-215] | 7.82

Further lines, results first:

pIC50 | Structure (SMILES)
8.52 | COc1ccccc1C1c2c(C(C)(C)CO)n[nH]c2C(=O)N1c1ccc(-c2ccsc2)cc1 (centres unmarked) [II-217]
8.30 | COc1ccccc1C1c2c(C(C)(C)CO)n[nH]c2C(=O)N1c1ccc(-c2cccs2)cc1 (centres unmarked) [II-218]
7.85 | COc1ccccc1C1c2c(C(C)(C)CO)n[nH]c2C(=O)N1c1ccc(-c2ccoc2)cc1 (centres unmarked) [II-219]
7.16 | COc1ncccc1C1c2c(C(C)(C)C)n[nH]c2C(=O)N1c1ccc(-c2ccoc2)cc1 (centres unmarked) [II-220]
7.64 | COc1ncccc1C1c2c(C(C)(C)C)n[nH]c2C(=O)N1c1ccc(-c2ccsc2)cc1 (centres unmarked) [II-223]
7.51 | COc1ncccc1C1c2c(C(C)(C)C)n[nH]c2C(=O)N1c1ccc(-c2cccs2)cc1 (centres unmarked) [II-224]
6.01 | COc1ccc(-c2n[nH]c3c2C(c2ccccc2OC)N(CCc2ccco2)C3=O)cc1 (centres unmarked) [II-225]
7.09 | COC(=O)n1nc(C(C)(C)C)c2c1C(=O)N(c1ccc(Br)cc1)C2c1ccccc1OC (centres unmarked) [II-229]
6.46 | COc1ccc(-c2n[nH]c3c2C(c2ccccc2OC)N(CCCc2ccco2)C3=O)cc1 (centres unmarked) [II-231]
7.80 | COc1ccccc1C1c2c(C(C)(C)CO)n[nH]c2C(=O)N1c1ccc(-c2cc[nH]c2)cc1 (centres unmarked) [II-232]
7.04 | CC(C)c1n[nH]c2c1C(c1ccccn1)N(c1ccc(-c3ccsc3)cc1)C2=O (centres unmarked) [II-233]
6.89 | CC(C)(CO)c1n[nH]c2c1C(c1ccccn1)N(c1ccc(-c3ccsc3)cc1)C2=O (centres unmarked) [II-234]
7.77 | COc1cc(N2C(=O)c3[nH]nc(C(C)C)c3C2c2ccccc2OC)ccc1-c1ccsc1 (centres unmarked) [II-235]
8.30 | CC(C)c1n[nH]c2c1C(c1ccccc1OC(CO)CO)N(c1ccc(-c3ccsc3)cc1)C2=O (centres unmarked) [II-236]
6.07 | COc1ccccc1C1c2c(C(C)C)n[nH]c2C(=O)N1c1ccc(-c2ccsc2)c(NC(C)=O)c1 (centres unmarked) [II-237]
7.72 | COc1ccccc1C1c2c(C(C)C)n[nH]c2C(=O)N1c1ccc(-c2ccsc2)c(F)c1 (centres unmarked) [II-238]
6.69 | COc1ccccc1C1c2c(C(C)C)n[nH]c2C(=O)N1c1ccc(-c2ccsc2)c(C)c1 (centres unmarked) [II-239]
6.94 | COc1ccccc1C1c2c(C(C)C)n[nH]c2C(=O)N1c1ccc(-c2ccsc2)c(N)c1 (centres unmarked) [II-240]
6.67 | COC(=O)c1cc(N2C(=O)c3[nH]nc(C(C)C)c3C2c2ccccc2OC)ccc1-c1ccsc1 (centres unmarked) [II-241]
6.82 | COc1ccccc1C1c2c(C(C)C)n[nH]c2C(=O)N1c1ccc(-c2ccsc2)c(C(N)=O)c1 (centres unmarked) [II-242]
6.86 | COc1ccccc1C1c2c(C(C)C)n[nH]c2C(=O)N1c1ccc(-c2ccsc2)c(CO)c1 (centres unmarked) [II-243]
6.84 | COc1ccccc1C1c2c(C(C)C)n[nH]c2C(=O)N1c1ccc(-c2ccsc2)c(N(C)C)c1 (centres unmarked) [II-244]
8.22 | CC(C)c1n[nH]c2c1C(c1ccccc1OCCS(C)(=O)=O)N(c1ccc(-c3ccsc3)cc1)C2=O (centres unmarked) [II-245]
6.06 | COc1ccccc1C1c2c(C(C)(C)C)n[nH]c2C(=O)N1c1ccc(Br)cn1 (centres unmarked) [II-246]
7.48 | COc1ccccc1C1c2c(C(C)(C)C)n[nH]c2C(=O)N1c1ccc(-c2ccoc2)cn1 (centres unmarked) [II-247]
7.89 | COc1ccccc1C1c2c(C(C)(C)C)n[nH]c2C(=O)N1c1ccc(-c2ccsc2)cn1 (centres unmarked) [II-248]
7.37 | COc1ccccc1C1c2c(C(C)(C)CO)n[nH]c2C(=O)N1c1ccc(-c2ccoc2)cn1 (centres unmarked) [II-250]
8.10 | COc1ccccc1C1c2c(C(C)(C)CO)n[nH]c2C(=O)N1c1ccc(-c2ccsc2)cn1 (centres unmarked) [II-251]
7.70 | COc1ccccc1C1c2c(C(C)(C)C)n[nH]c2C(=O)N1c1ccc(-c2ccoc2)nc1 (centres unmarked) [II-253]
8.70 | COc1ccccc1C1c2c(C(C)(C)C)n[nH]c2C(=O)N1c1ccc(-c2ccsc2)nc1 (centres unmarked) [II-254]
